This is an account of results in patent publication US12600728B2, “Interleukin-17 inhibitors” (priority 2020, dated 2026).

Data set [1] has as its target recombinant human IL-17AA (Homo sapiens, UniProt Q16552). Description: IL-6 release from NHDF cells, IL-17AA plus TNF-α stimulation. Particulars: 24 hours, IL-6 by ELISA. Type of data set: cell-based. The gist of the method: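 IL-17-specific IL-6 release from NHDF cells adhered overnight; compounds pre-incubated 30 min at room temperature with human IL-17AA plus TNF-α, then 24 h on cells at 37° C. Final DMSO 0.1% or plasma 20%; IL-6 by ELISA (450 nm). TNF-α-only IL-6 subtracted before IC50 fit.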
(An ELISA detects its analyte on a solid surface through an enzyme-linked reagent.)

Data set [2] addresses biotinylated human IL-17A / AF647-labeled human IL-17RA (Homo sapiens, UniProt Q16552). Kind of data set: Human IL-17A×IL-17RA TR-FRET assay. Type of data set: binding. The gist of the method:
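Compounds tested in duplicate at each concentration; neutral controls contain all components with DMSO in place of compound.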
A general note: TR-FRET usually uses a lanthanide donor and a delayed reading to cut background.

[3] abbreviates: NHDF cells, IL-17AA 30 pM plus TNF-α 6 pM, read-out: IL17AA + TNF IC50 IL-6.
Setting [4] is: TR-FRET, biotinylated human IL-17A 5 nM, AF647-labeled human IL-17RA 30 nM, read-out: IL17AA FRET/ IL17Rawt IC50.
The mark [5] stands for this setting: NHDF cells, IL-17AA 30 pM + TNF-α 6 pM, read-out: IL17AA + TNF IC50 IL-6.
Setting [6] is: TR-FRET, 5 nM IL-17A, 30 nM IL-17RA, read-out: IL17AA FRET/ IL17Rawt IC50.
Where [7] appears, read: IL17AA + TNF IC50 IL-6, NHDF cells, IL-17AA 30 pM + TNF-α 6 pM.
Setting [8] is: IL17AA FRET/ IL17Rawt IC50, TR-FRET, 5 nM IL-17A, 30 nM IL-17RA.
The mark [9] stands for this setting: NHDF cells, IL-17AA 30 pM + TNF-α 6 pM, reference examples (pyridines), read-out: IL 17AA + TNF IC50 IL-6.
[10] abbreviates: TR-FRET, 5 nM IL-17A, 30 nM IL-17RA, reference examples (pyridines), read-out: IL17AA FRET/ IL17RAwt IC50.

As usually defined, the melting point is the temperature, or range, at which the solid turns liquid.

Read-outs that look alike come from different tables or passages of the source.

Sequence of recombinant human IL-17AA (Q16552 24-155): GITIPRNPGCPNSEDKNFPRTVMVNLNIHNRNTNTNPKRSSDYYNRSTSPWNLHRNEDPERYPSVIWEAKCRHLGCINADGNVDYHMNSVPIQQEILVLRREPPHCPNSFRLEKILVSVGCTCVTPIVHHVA
Sequence of biotinylated human IL-17A / AF647-labeled human IL-17RA (Q16552 24-155): as above

`CCc1nocc1C(=O)N[C@H](C(=O)Nc1ccc(-c2c(C(F)(F)F)cc[n+]([O-])c2C)cc1)C1CCCC1` [Example 5, (S)-3-(4-(2-cyclopentyl-2-(3-ethylisoxazole-4-carboxamido)acetamido)phenyl)-2-methyl-4-(trifluoromethyl)pyridine 1-oxide]: the melting point fell in the range of 149 to 151 °C. For the same compound, the IC50 in data set [1] (setting [3]) was 9 nM. The IC50 in data set [2] (setting [4]) is 28 nM.
Consider `CCc1nocc1C(=O)N[C@H](C(=O)Nc1ccc(-c2c(Cl)cc[n+]([O-])c2C)cc1)[C@H]1CCCC(F)(F)C1` [Example 6, 4-chloro-3-(4-((S)-2-((S)-3,3-difluorocyclohexyl)-2-(3-ethylisoxazole-4-carboxamido)acetamido)phenyl)-2-methylpyridine 1-oxide], for which the melting point was 247 to 250 °C. Besides, the IC50 in data set [1] (setting [3]) amounted to 5 nM. Also, the IC50 in data set [2] (setting [4]) was determined as 48 nM.
As for `Cc1cc[n+]([O-])c(C)c1-c1ccc(NC(=O)[C@@H](NC(=O)c2ccc3n2CCNC3)C2CCC(F)(F)CC2)cc1` [Example 207, (S)-3-(4-(2-(4,4-difluorocyclohexyl)-2-(1,2,3,4-tetrahydropyrrolo[1,2-a]pyrazine-6-carboxamido)acetamido)phenyl)-2,4-dimethylpyridine 1-oxide], the results for the IC50 in data set [1] (setting [5]) and in data set [2] (setting [6]) were 69 nM and 303 nM, respectively.
In the case of `Cc1cc[n+]([O-])c(C)c1-c1ccc(NC(=O)[C@@H](NC(=O)c2ccc3n2CCN(C)C3)C(C)c2ccccc2Cl)cc1` (stereo partly drawn) [Example 213, 3-(4-((2S)-3-(2-chlorophenyl)-2-(2-methyl-1,2,3,4-tetrahydropyrrolo[1,2-a]pyrazine-6-carboxamido)butanamido)phenyl)-2,4-dimethylpyridine 1-oxide], the IC50 in data set [1] (setting [5]) was 2580 nM; in data set [2] (setting [6]), 533 nM.
On to `Cc1cc[n+]([O-])c(C)c1-c1ccc(NC(=O)[C@@H](NC(=O)c2ccnn2C)[C@H]2CCC[C@@H](F)CC2)cc1` [Example 215, 3-(4-((S)-2-((1S,4R)-4-fluorocycloheptyl)-2-(1-methyl-1H-pyrazole-5-carboxamido)acetamido)phenyl)-2,4-dimethylpyridine 1-oxide], for which the IC50 came to 138 nM in data set [1] (setting [5]) and 755 nM in data set [2] (setting [6]).
`Cc1cc[n+]([O-])c(C)c1-c1ccc(NC(=O)[C@H](Cc2ccccc2F)NC(=O)c2ccnn2C)cc1` [Example 217, (S)-3-(4-(3-(2-fluorophenyl)-2-(1-methyl-1H-pyrazole-5-carboxamido)propanamido)phenyl)-2,4-dimethylpyridine 1-oxide]: the IC50 in data set [1] (setting [5]) turned out to be 2960 nM; in data set [2] (setting [6]), 1100 nM.
With `Cc1c(-c2ccc(NC(=O)C(NC(=O)c3ccnn3C)C3CC4CC4C3)cc2)c(Cl)cc[n+]1[O-]` (centres unmarked) [Example 218, 3-(4-(2-(bicyclo[3.1.0]hexan-3-yl)-2-(1-methyl-1H-pyrazole-5-carboxamido)acetamido)phenyl)-4-chloro-2-methylpyridine 1-oxide], the IC50 is 19.5 nM in data set [1] (setting [5]) and 67.5 nM in data set [2] (setting [6]).
For `Cc1cc[n+]([O-])c(C)c1-c1ccc(NC(=O)C(NC(=O)c2ccnn2C)C2C=C(F)CCC2)cc1` (centres unmarked) [Example 219, 3-(4-(2-(3-fluorocyclohex-2-en-1-yl)-2-(1-methyl-1H-pyrazole-5-carboxamido)acetamido)phenyl)-2,4-dimethylpyridine 1-oxide], the IC50 came to 142 nM in data set [1] (setting [7]) and 2290 nM in data set [2] (setting [8]).
`Cc1cc[n+]([O-])c(C)c1-c1ccc(NC(=O)C(NC(=O)c2conc2C)C(C)c2ccccc2Cl)cc1` (centres unmarked) [Example 221, 3-(4-(3-(2-chlorophenyl)-2-(3-methylisoxazole-4-carboxamido)butanamido)phenyl)-2,4-dimethylpyridine 1-oxide]: the IC50 in data set [1] (setting [5]) worked out at 264 nM; in data set [2] (setting [6]), 71.9 nM.
For the compound `Cc1c(-c2ccc(NC(=O)[C@@H](NC(=O)c3ccnn3C)C3CCCCC3)cc2)c(C(C)C)cc[n+]1[O-]` [Example 224, (S)-3-(4-(2-cyclohexyl-2-(1-methyl-1H-pyrazole-5-carboxamido)acetamido)phenyl)-4-isopropyl-2-methylpyridine 1-oxide], the IC50 was determined as 108 nM in data set [1] (setting [5]) and 2190 nM in data set [2] (setting [6]).
Turning to `Cc1c(-c2ccc(NC(=O)C(NC(=O)c3ccnn3C)[C@H]3C[C@@H]4C[C@@H]4C3)cc2F)c(Cl)cc[n+]1[O-]` (stereo partly drawn) [Example 225, 3-(4-(2-((1R,3s,5S)-bicyclo[3.1.0]hexan-3-yl)-2-(1-methyl-1H-pyrazole-5-carboxamido)acetamido)-2-fluorophenyl)-4-chloro-2-methylpyridine 1-oxide], the values for the IC50 in data set [1] (setting [7]) and in data set [2] (setting [8]) were 12 nM and 29 nM, respectively.
As to `Cc1ccnc(C)c1-c1ccc(NC(=O)[C@@H](NC(=O)c2ccnn2C)[C@H]2CCCc3ccccc32)cc1` [compound 136, N—((S)-2-((4-(2,4-dimethylpyridin-3-yl)phenyl)amino)-2-oxo-1-((S)-1,2,3,4-tetrahydronaphthalen-1-yl)ethyl)-1-methyl-1H-pyrazole-5-carboxamide, reference compound], the IC50 amounted to 50 nM in data set [1] (setting [9]) and 117 nM in data set [2] (setting [10]).
Taken in the same sequence, the figures for `Cc1ccnc(C)c1-c1ccc(NC(=O)[C@@H](NC(=O)c2ccnn2C)[C@H]2CC[C@H](C)CC2)cc1` [compound 138, N-((S)-2-((4-(2,4-dimethylpyridin-3-yl)phenyl)amino)-1-((1r,4S)-4-methylcyclohexyl)-2-oxoethyl)-1-methyl-1H-pyrazole-5-carboxamide, reference compound] were 55 nM and 552 nM.
Taken in the same sequence, the figures for `CCc1nocc1C(=O)N[C@H](C(=O)Nc1ccc(-c2c(C(F)(F)F)ccnc2C)cc1)C1CCCC1` [compound 139, (S)-N-(1-cyclopentyl-2-((4-(2-methyl-4-(trifluoromethyl)pyridin-3-yl)phenyl)amino)-2-oxoethyl)-3-ethylisoxazole-4-carboxamide, reference compound] were 152 nM and 899 nM.
For `Cc1ccnc(C)c1-c1ccc(NC(=O)[C@@H](NC(=O)c2ccnn2C)[C@@H]2CC=C(F)CC2)cc1` [compound 144, N-((S)-2-((4-(2,4-dimethylpyridin-3-yl)phenyl)amino)-1-((S)-4-fluorocyclohex-3-en-1-yl)-2-oxoethyl)-1-methyl-1H-pyrazole-5-carboxamide, reference compound], the figures for the IC50 in data set [1] (setting [9]) and in data set [2] (setting [10]) were 715 nM and 4180 nM, respectively.
